Data reported in ChEMBL document CHEMBL4270672, “Synthesis and Biological Evaluation of Fused Tricyclic Heterocycle Piperazine (Piperidine) Derivatives As Potential Multireceptor Atypical Antipsychotics” (J Med Chem, 2018).

What was measured:
[1] = Acute toxicity in po dosed Kunming mouse assessed as mortality measured after 24 hrs post dose; type: organism-based; details: in vivo
[2] = biological target: 5-hydroxytryptamine receptor 6 (Homo sapiens, UniProt P50406); test: Agonist activity at serotonin 5-HT6 receptor (unknown origin) expressed in HEK293 cells assessed as induction of calcium flux at 10 uM after 60 mins by calcium 4-dye based FLIPR assay relative to control; type: functional, cell-based
[3] = Tmax in Sprague-Dawley rat at 10 mg/kg, po by LC-MS/MS analysis; type: ADME, organism-based; details: in vivo
[4] = AUC (0 to t) in Sprague-Dawley rat at 1 mg/kg, iv by LC-MS/MS analysis; type: ADME, organism-based; details: in vivo
[5] = AUC (0 to infinity) in Sprague-Dawley rat at 10 mg/kg, po by LC-MS/MS analysis; type: ADME, organism-based; set-up: dose 10 mg/kg, route oral, time infinity; details: in vivo
[6] = Oral bioavailability in Sprague-Dawley rat at 10 mg/kg by LC-MS/MS analysis; type: ADME, organism-based; details: in vivo
D(1A) dopamine receptor [7] = biological target: D(1A) dopamine receptor (Rattus norvegicus, UniProt P18901); test: Displacement of [3H]-SCH23390 from dopamine D1 receptor in rat strriatum homogenates after 20 mins by liquid scintillation counting
D(1A) dopamine receptor [8] = biological target: D(1A) dopamine receptor (Homo sapiens, UniProt P21728); test: Antagonist activity at human dopamine D1 receptor expressed in HEK293T cells assessed as inhibition of dopamine-induced cAMP accumulation preincubated for 15 mins followed by dopamine induction and measured after 30 mins by HTRF assay; type: functional, cell-based
[9] = biological target: Sodium-dependent serotonin transporter (Rattus norvegicus, UniProt P31652); test: Displacement of [3H]-paroxetine from SERT in rat cerebral cotex homogenates after 10 mins by liquid scintillation counting
Glutamate NMDA receptor = test: Displacement of [3H] glycine from NMDA receptor in rat hippocampal membrane homogenates after 30 mins by liquid scintillation counting; type: cell membranes
D(2) dopamine receptor = D(2) dopamine receptor (Rattus norvegicus, UniProt P61169)
Chain of D(2) dopamine receptor (P61169 whole entry): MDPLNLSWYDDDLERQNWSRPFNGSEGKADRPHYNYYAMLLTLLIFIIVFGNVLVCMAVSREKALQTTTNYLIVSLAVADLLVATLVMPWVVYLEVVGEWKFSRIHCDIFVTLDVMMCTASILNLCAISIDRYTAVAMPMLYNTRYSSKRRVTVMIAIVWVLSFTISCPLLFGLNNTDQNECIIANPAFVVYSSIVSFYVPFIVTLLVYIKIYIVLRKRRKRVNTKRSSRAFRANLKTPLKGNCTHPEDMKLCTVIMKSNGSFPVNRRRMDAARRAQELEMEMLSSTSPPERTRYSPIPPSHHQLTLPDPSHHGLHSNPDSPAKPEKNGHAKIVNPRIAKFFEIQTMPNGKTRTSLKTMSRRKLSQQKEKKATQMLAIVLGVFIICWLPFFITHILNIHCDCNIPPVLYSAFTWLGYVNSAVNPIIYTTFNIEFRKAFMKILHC

Chain of D(1A) dopamine receptor (Rattus norvegicus, UniProt P18901) (P18901 whole entry): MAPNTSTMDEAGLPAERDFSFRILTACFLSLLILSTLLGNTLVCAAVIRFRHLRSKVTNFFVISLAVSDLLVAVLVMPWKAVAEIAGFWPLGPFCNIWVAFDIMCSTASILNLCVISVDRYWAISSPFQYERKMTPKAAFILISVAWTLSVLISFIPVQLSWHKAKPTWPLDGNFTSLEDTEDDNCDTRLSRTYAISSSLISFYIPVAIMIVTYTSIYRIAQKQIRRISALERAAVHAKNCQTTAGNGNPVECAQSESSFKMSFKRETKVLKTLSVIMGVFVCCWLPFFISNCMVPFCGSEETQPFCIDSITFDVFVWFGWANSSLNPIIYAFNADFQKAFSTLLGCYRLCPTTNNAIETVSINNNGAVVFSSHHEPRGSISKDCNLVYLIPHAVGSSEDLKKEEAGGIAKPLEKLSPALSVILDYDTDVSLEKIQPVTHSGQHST
Chain of Sodium-dependent serotonin transporter (P31652 whole entry): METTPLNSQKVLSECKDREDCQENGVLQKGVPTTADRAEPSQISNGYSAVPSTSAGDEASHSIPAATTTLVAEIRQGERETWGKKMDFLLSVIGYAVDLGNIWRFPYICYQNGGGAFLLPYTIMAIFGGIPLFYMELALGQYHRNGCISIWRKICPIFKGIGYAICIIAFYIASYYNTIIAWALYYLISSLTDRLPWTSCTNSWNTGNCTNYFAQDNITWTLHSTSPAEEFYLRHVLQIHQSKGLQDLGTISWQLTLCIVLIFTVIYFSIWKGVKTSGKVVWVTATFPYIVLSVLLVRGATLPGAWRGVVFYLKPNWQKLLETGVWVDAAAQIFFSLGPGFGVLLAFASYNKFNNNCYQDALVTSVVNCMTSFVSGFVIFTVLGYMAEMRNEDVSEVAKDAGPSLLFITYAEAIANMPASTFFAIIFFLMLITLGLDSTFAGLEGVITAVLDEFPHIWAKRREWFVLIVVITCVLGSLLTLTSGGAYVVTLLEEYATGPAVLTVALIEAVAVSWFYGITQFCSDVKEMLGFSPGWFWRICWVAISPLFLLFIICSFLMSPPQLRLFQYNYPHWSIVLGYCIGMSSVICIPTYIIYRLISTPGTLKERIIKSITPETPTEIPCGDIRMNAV
Chain of 5-hydroxytryptamine receptor 6 (P50406 whole entry): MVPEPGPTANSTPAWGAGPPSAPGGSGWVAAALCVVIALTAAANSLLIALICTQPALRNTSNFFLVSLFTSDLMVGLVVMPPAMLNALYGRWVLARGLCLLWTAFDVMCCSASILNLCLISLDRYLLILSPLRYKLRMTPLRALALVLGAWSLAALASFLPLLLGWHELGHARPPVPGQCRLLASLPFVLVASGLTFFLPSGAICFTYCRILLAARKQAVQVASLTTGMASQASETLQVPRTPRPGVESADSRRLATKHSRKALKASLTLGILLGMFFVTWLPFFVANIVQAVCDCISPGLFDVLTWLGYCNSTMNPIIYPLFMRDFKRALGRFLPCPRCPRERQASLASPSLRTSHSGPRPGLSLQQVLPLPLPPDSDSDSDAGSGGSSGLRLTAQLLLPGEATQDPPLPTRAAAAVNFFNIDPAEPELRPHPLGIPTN
Chain of D(1A) dopamine receptor (Homo sapiens, UniProt P21728) (P21728 whole entry): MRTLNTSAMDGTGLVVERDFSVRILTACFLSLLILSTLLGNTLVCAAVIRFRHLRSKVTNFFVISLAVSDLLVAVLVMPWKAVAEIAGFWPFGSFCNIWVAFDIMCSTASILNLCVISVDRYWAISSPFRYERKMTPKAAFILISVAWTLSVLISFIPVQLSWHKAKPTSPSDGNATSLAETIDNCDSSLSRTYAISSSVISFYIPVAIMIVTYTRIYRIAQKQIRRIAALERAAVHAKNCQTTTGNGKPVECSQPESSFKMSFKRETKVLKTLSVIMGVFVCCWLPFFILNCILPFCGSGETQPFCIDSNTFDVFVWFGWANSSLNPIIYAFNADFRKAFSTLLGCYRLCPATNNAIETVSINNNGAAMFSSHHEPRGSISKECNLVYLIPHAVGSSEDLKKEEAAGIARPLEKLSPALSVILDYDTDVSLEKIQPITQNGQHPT

O=C(CCCCN1CCC(c2noc3cc(F)ccc23)CC1)c1cc2c3c(c1)CCN3C(=O)CC2
LD50 at 24 h [1]: > 2000 mg/kg | Activity [2]: 6% | Tmax [3]: 1 h | AUC(0-t) [4]: 3140 ng·h/mL | AUC(0-inf) [5]: 18500 ng·h/mL | bioavailability [6]: 58.8% | Ki (D(1A) dopamine receptor [7]): 76.9 nM | IC50 (D(1A) dopamine receptor [8]): 366 nM | Ki [9]: > 1000 nM | Ki (Glutamate NMDA receptor): > 1000 nM | Ki (D(2) dopamine receptor): 2.9 nM
